In patent USRE38117E1, “Trioxane dimer compound having antiproliferative and antitumor activities” (Hauser, Inc., priority 1995, dated 2003):

Assays:
DU-145 = assay: NCI 60 cell line screen (SRB), Prostate Cancer; type: cell-based; details: DU-145 (Prostate Cancer)
[1] = Stability at room temperature; type: physicochemical; details: crystalline solid
60 cell line panel = details: cell line panels consisting of 60 lines; cited from earlier work
[2] = test system: Ehrlich ascites tumor (EAT) cells; details: MTT assay, Woerdenbag et al. 1993; cited from earlier work
P. berghei = details: P. berghei-infected mice; Klayman 1985; cited from earlier work
P388 leukemia = details: NCI Report on NSC 369397; cited from earlier work
[3] = test system: Plasmodium vivax and Plasmodium falciparum; details: 2099 cases of malaria, different dosage forms of QHS; 1979 study; cited from earlier work
P. falciparum = details: two Hanian strains; Ye et al. 1983; cited from earlier work
[4] = cited from earlier work

Structure (SMILES) | Log10GI50 (DU-145) | Log10LC50 (DU-145) | Log10TGI (DU-145) | stability [1] | anticancer activity (60 cell line panel) | ID50 / IC50 (drug concentration causing 50% growth inhibition of the tumor cells) [2] | SD90 (parasitemia 90 percent suppressed) (P. berghei) | activity against P388 leukemia (P388 leukemia) | clinical outcome [3] | potency in vitro compared with chloroquine (P. falciparum) | solubility in water [4]
CC(=O)O[C@H]1C(=O)[C@@]2(C)[C@H]([C@H](OC(=O)c3ccccc3)[C@]3(O)C[C@H](OC(=O)[C@H](O)[C@@H](NC(=O)c4ccccc4)c4ccccc4)C(C)=C1C3(C)C)[C@]1(OC(C)=O)CO[C@@H]1C[C@@H]2O [Paclitaxel, paclitaxel, reference compound] | −9.38 M | >−4.00 M | >−4.00 M | – | – | – | – | – | – | – | –
COC1OC2(C)CCC3CCCC(CCOC(=O)c4cccc(C(=O)OCCC5CCCC6CCC7(C)OOC56C(OC)O7)c4)C31OO2 (centres unmarked) [Compound 10, Trioxane Bis-ester Dimer] | −4.53 M | >−4.30 M | >−4.30 M | stable for prolonged periods at room temperature | – | – | – | – | – | – | –
C[C@@H]1CC[C@H]2[C@@H](C)C(=O)O[C@@H]3O[C@@]4(C)CC[C@@H]1[C@]32OO4 [QHS, 3,6,9-trimethyl-9,10b-epidioxyperhydropyrano[4,3,2-jk]benzoxepin-2-one, reference compound] | – | – | – | – | very little anticancer activity | 29.8 µM | 6.20 mg/kg | inactive | clinical cure of all patients | comparable to that of chloroquine | insolubility in water
